Measured values published in patent publication US20180064153A1, “Methods of Protecting Against Brain Injury” (priority 2016, published 2018).
Like-named read-outs stand apart in the source and are kept apart here.

How the values were obtained:
[1] = test system: rats exposed to a low-pressure blast wave; settings: 1 h following blast
Method: Neurological assessment using the neurological severity score (NSS) was performed one hour following the blast and daily thereafter. […] The NSS was performed 1-h following the initial blast wave exposure. NSS assesses somatomotor and somatosensory function by evaluating the animals' activities in motor, sensory, reflexes, beam walking, and beam balancing tasks. Specifically, the following were assessed: ability to exit from a circle (3-point scale), gait on a wide surface (3-point scale), gait on a narrow surface (4-point scale), effort to remain on a narrow surface (2-point scale), reflexes (5-point scale), seeking behavior (2-point scale), beam walking (3-point scale), and beam balance (3- point scale). An observer, who was blind to the different treatment groups, tested the animals.

[2] = test system: brain-derived neurotrophic factor (BDNF); settings: day 16 post-blast
[3] = test system: tau protein; settings: day 16 post-blast; for Tau protein expression, CTL compared with BA: p<0.001
[4] = individuals taking β-alanine as a free amino acid; cited from earlier work
[5] = test system: histidine; settings: for Brain Histidine Concentration: mean ± SD
[6] = test system: glial fibrillary acidic protein (GFAP); settings: day 16 post-blast
[7] = test system: rats exposed to a low-pressure blast wave; settings: 30 days supplementation
[8] = test system: neuropeptide Y (NPY); settings: day 16 post-blast
[9] = test system: carnosine; settings: for Brain Carnosine Concentration: mean ± SD

Question: With NCCC(=O)O [BA, beta-alanine] as the compound, how does the “NSS: reflex responses, motor coordination, motor strength, sensory function, BA vs PL” value [1] read?
Answer: No significant differences

Question: And the “BDNF expression, BA compared with PL” value ([2]; CA1 subregion, p=0.009)?
Answer: significantly higher

Question: And the “BDNF expression, CTL compared with BA” value ([2]; CA1 subregion, p=0.025)?
Answer: significantly higher

Question: And the “BDNF expression, CTL compared with BA” value ([2]; CA3 subregion, p=0.005)?
Answer: significantly greater

Question: And the “BDNF expression, BA compared with PL” value ([2]; CA3 subregion, p=0.110)?
Answer: No difference

Question: What about the “BDNF expression, CTL compared with BA” value ([2]; DG subregion, p=0.005) of the same compound?
Answer: significantly greater

Question: What about the “BDNF expression, BA compared with PL” value ([2]; DG subregion, p=0.136) of the same compound?
Answer: no differences

Question: What about the “Tau protein expression, CTL compared with BA” value ([3]; CA1 subregion) of the same compound?
Answer: significantly lower

Question: What about the “Tau protein expression, BA compared with PL” value ([3]; CA1 subregion, p=0.700) of the same compound?
Answer: No significant differences

Question: What about the “Tau protein expression, CTL compared with BA” value ([3]; CA3 subregion) of the same compound?
Answer: significantly lower

Question: And the “Tau protein expression, BA compared with PL” value ([3]; CA3 subregion, p=1.000)?
Answer: no differences

Question: And the “Tau protein expression, CTL compared with BA” value ([3]; DG subregion)?
Answer: significantly lower

Question: What about the “Tau protein expression, BA compared with PL” value ([3]; DG subregion, p=0.557) of the same compound?
Answer: no differences observed

Question: What about the “duration of flushing/tingling (paraesthesia) of the skin” value [4] of the same compound?
Answer: less than 60 minutes

Question: What about the “Brain Histidine Concentration” value ([5]; Amygdala) of the same compound?
Answer: 2619 ± 1467 mM

Question: And the “Brain Histidine Concentration” value ([5]; Cortex)?
Answer: 5669 ± 4471 mM

Question: What about the “Brain Histidine Concentration” value ([5]; Hippocampus) of the same compound?
Answer: 5632 ± 4995 mM

Question: And the “Brain Histidine Concentration” value ([5]; Hypothalamus)?
Answer: 1862 ± 1794 mM

Question: What about the “Brain Histidine Concentration” value ([5]; Thalamus) of the same compound?
Answer: 26025 ± 21754 mM

Question: What about the “histidine content higher than PL” value ([5]; across the five regions of the brain) of the same compound?
Answer: 86%

Question: What about the “histidine content, BA compared to PL” value ([5]; cerebral cortex, p=0.070) of the same compound?
Answer: Trends towards a higher histidine content

Question: What about the “histidine content, BA compared to PL” value ([5]; hippocampus, p=0.053) of the same compound?
Answer: Trends towards a higher histidine content

Question: And the “histidine content, BA compared to PL” value ([5]; thalamus, p=0.108)?
Answer: Trends towards a higher histidine content

Question: And the “GFAP expression, PL compared with BA” value ([6]; CA1 subregion, p=0.001)?
Answer: significantly greater

Question: And the “GFAP expression, CTL compared with BA” value ([6]; CA1 subregion, p=0.126)?
Answer: No differences

Question: What about the “GFAP expression, PL compared with BA” value ([6]; CA3 subregion, p=0.021) of the same compound?
Answer: significantly greater

Question: And the “GFAP expression, BA compared with CTL” value ([6]; CA3 subregion, p=0.876)?
Answer: no differences

Question: And the “GFAP expression, comparison between BA, PL and CTL” value ([6]; DG subregion, ANOVA p=0.387)?
Answer: no difference

Question: What about the “prevalence of animals demonstrating the comorbid pattern of mTBI+PTSD” value ([7]; 2/49) of the same compound?
Answer: 4%

Question: What about the “prevalence of PTSD” value ([7]; 5/49) of the same compound?
Answer: 10.2%

Question: What about the “prevalence of animals demonstrating mTBI” value ([7]; 13/49) of the same compound?
Answer: 26.5%

Question: What about the “NPY expression, CTL compared with BA” value ([8]; CA1 subregion, p=0.011) of the same compound?
Answer: significantly higher

Question: What about the “NPY expression, BA compared with PL” value ([8]; CA1 subregion, p=0.196) of the same compound?
Answer: No significant differences

Question: What about the “NPY expression, CTL compared with BA” value ([8]; CA3 subregion, p=0.032) of the same compound?
Answer: significantly greater

Question: And the “NPY expression, BA compared with PL” value ([8]; CA3 subregion, p=0.480)?
Answer: no differences

Question: And the “NPY expression, CTL compared with BA” value ([8]; DG subregion, p=0.011)?
Answer: significantly greater

Question: What about the “NPY expression, BA compared with PL” value ([8]; DG subregion, p=0.074) of the same compound?
Answer: trended (p=0.074) towards a higher response

Question: And the “Brain Carnosine Concentration” value ([9]; Amygdala)?
Answer: 23.2 ± 18.4 mM

Question: And the “Brain Carnosine Concentration” value ([9]; Cortex)?
Answer: 364 ± 178 mM

Question: What about the “Brain Carnosine Concentration” value ([9]; Hippocampus) of the same compound?
Answer: 22.4 ± 11.3 mM

Question: What about the “Brain Carnosine Concentration” value ([9]; Hypothalamus) of the same compound?
Answer: 22.7 ± 26.2 mM

Question: What about the “Brain Carnosine Concentration” value ([9]; Thalamus) of the same compound?
Answer: 50.9 ± 33.9 mM

Question: What about the “carnosine content, BA compared to PL” value ([9]; amygdala, p=0.061) of the same compound?
Answer: Trends towards a difference

Question: And the “carnosine content higher than in animals that consumed the vehicle” value ([9]; average across the five brain regions)?
Answer: 79%

Question: And the “carnosine content, BA compared to PL” value ([9]; cerebral cortex, p=0.048)?
Answer: significantly higher

Question: What about the “carnosine content, BA compared to PL” value ([9]; hippocampus, p=0.058) of the same compound?
Answer: Trends towards a difference
